Measured values reported in patent US9642381B2, “Orally consumable formulations comprising certain sweet-tasting triterpenes and triterpene glycosides” (Symrise AG, priority 2011, dated 2017).

Tests used:
Type in all cases: in vivo, human
[1] = system: group of experts; test: Sensory evaluation of Balansin A and Balansin B by a group of experts; conditions: 50 ppm in water and in a 5 wt % aqueous saccharose solution; Balansin A described in the aqueous solution
Description: A group of experts tasted and sensorily evaluated the two isolated compounds Balansin A and Balansin B from Example 4, each at a concentration of 50 ppm in water and a 5 wt % aqueous saccharose solution.

[2] = system: group of at least five persons; test: Intrinsic sweetness against a saccharose reference series (saccharose equivalents); conditions: 50 ppm, against saccharose reference series in water
Description: To determine the sweet impression of the extracts according to the invention or of the compounds according to the invention of the formula (I) compared to an aqueous saccharose solution, an aqueous solution of one or a plurality of compounds of the formula (I) is produced in the same concentration as is present in the orally consumable formulation under study. This aqueous solution is then compared and rated for taste by a group of at least five persons against a reference series of different saccharose concentrations in water. In this way, the saccharose equivalence is determined (indicated in saccharose equivalents), in other words, the concentration of the saccharose solution, whose sweet impression is equivalent to the sweet impression of the concentration of compounds of the formula (I). Preferred concentrations of the saccharose reference solution are 0; 0.25; 0.5; 0.75; 1; 1.5; 2; 3; 4 and 5 wt % saccharose in water. If necessary, other concentrations, particularly higher concentrations, can also be used for the reference series. The ascertained saccharose equivalent is obtained from the mean value of the individual rating of the individual panelists. The panelists are preferably persons who have experience in the field of tasting, are of different age and gender and come from different backgrounds. […]

[3] = system: group of experts; test: Reinforcing the sweet impression of a 5 wt % saccharose solution; conditions: for % Reinforcement of the sweet impression: versus saccharose solution alone; for Sweet impression (1-10) with: rating 1 [not sweet] to 10 [extremely sweet]
Experimental: In order to quantify the reinforcement of the sweet impression, the sweetness of a 5 wt %-containing saccharose solution and of a sample which contained 5 wt % saccharose and a quantity of the test substance or test extract was determined by a group of experts (rating 1 [not sweet] to 10 [extremely sweet]). The analysis was performed as a calculation of the […] (in %) of the sweet impression from the average values of the assessments of the saccharose solution and of the solution containing saccharose and Compound 2 (p was determined as a significance measure according to the paired, two-tailed Student's statistical test).

[4] = 25 ppm in 5 wt % saccharose solution
[5] = 50 ppm in 5 wt % saccharose solution

Question: How did the “Sensory evaluation (taste description)” value [1] turn out when `CC(C)(O)C(O)C/C=C(\CO)[C@H]1CC[C@]2(C)[C@@H]1CC[C@@H]1[C@@]3(C)CC[C@H](O[C@@H]4O[C@H](CO)[C@@H](O)[C@H](O)[C@H]4OC4O[C@H](CO)[C@@H](O)[C@H](O)[C@H]4O)C(C)(C)[C@@H]3CC[C@]12C` (some centres unmarked) [Balansin A] was run?
Answer: intensely sweet, also as slightly bitter and displayed a sweetener-type note

Question: And the “Intrinsic sweetness, equivalent to the sweetness of saccharose” value [2]?
Answer: 2 % saccharose

Question: What about the “% Reinforcement of the sweet impression” value [3, 4] of the same compound?
Answer: 48% (p < 0.00005)

Question: And the “Sweet impression (1-10) with” value [3, 4]?
Answer: 7.2 ± 1.4

Question: Which results are given for `CC(C)(O)C(O)C/C=C(\CO)[C@H]1CC[C@]2(C)[C@@H]1CC[C@@H]1[C@@]3(C)CC[C@H](O[C@@H]4O[C@H](COC5OC(CO)[C@@H](O)[C@H](O)[C@H]5O)[C@@H](O)[C@H](O)[C@H]4OC4O[C@H](CO)[C@@H](O)[C@H](O)[C@H]4O)C(C)(C)[C@@H]3CC[C@]12C` (some centres unmarked) [Balansin B]?
Answer: Sensory evaluation (taste description) [1]: slightly bitter, slightly sweetener-type and weakly ethanolic, but otherwise displayed no noticeable intrinsic taste; Intrinsic sweetness, equivalent to the sweetness of saccharose [2]: 1 % saccharose; % Reinforcement of the sweet impression [3, 5]: 31% (p < 0.0005); Sweet impression (1-10) with [3, 5]: 6.7 ± 1.1
